Article PMC7576608, “Mechanisms of telomerase inhibition by oxidized and therapeutic dNTPs” (Nature Communications, 2020)
Where “and” joins values, the source holds several entries; their conditions need not be identical. Equal values may be shown once. Read-outs that look alike come from different tables or passages of the source.

How the values were obtained:
tcTERT [1] = target: T1, tcTERT (Tribolium castaneum, UniProt Q0QHL8); experiment: Pre-steady-state single-turnover kinetics of tcTERT single nucleotide insertion; type: biochemical; design: tcTERT kobs: unit not given here; conditions: for Fold change: catalytic efficiency relative to dGTP
T1 sequence (Q0QHL8 entry or part of it): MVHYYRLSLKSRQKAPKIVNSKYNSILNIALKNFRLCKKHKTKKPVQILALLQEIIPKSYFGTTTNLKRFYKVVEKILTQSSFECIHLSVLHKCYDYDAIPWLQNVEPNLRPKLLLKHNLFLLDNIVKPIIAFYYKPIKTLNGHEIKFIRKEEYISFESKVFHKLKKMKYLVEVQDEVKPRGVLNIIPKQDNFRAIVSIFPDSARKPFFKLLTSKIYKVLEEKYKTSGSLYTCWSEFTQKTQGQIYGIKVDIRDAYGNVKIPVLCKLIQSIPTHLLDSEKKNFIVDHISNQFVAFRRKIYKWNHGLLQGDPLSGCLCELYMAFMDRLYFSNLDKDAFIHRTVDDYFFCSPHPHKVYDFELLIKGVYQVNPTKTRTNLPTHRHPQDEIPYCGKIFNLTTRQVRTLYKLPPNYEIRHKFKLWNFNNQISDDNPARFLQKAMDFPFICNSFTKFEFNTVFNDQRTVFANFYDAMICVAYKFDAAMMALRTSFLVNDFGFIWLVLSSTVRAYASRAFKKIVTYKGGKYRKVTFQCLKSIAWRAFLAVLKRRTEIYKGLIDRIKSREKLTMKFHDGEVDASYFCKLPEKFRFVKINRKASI
Excerpt: In order to better understand the ability of modified dNTPs to compete with natural dNTPs for telomerase utilization, we added modified dNTPs to reactions containing all four natural dNTPs. […] The calculated IC50 determines the concentration required to reduce repeat processivity in the bulk reactions by half. However, it is important to note that bulk experiments cannot distinguish effects on individual telomeres, since extended telomeres mask unextended telomeres. Incorporation of a chain terminator during any step will terminate extension of the affected telomere, and just five critically short telomeres are sufficient to trigger senescence. Therefore, repeat processivity IC50 values are not necessarily an indicator of the inhibitory potency, but provide information on selectivity for modified dNTPs compared to natural dNTPs. […] The ability to purify sufficient quantities of tcTERT enables characterization of the catalytic nucleotide addition by pre-steady-state single turnover kinetics using a defined DNA–RNA primer–template substrate. The catalytic efficiency of incorporating a single dNTP is measured by dividing the observed nucleotide incorporation rate constant, kpol, by the equilibrium dissociation constant for dNTP binding to the tcTERT–primer–template complex (Kd)[44].
Pre-steady-state kinetic parameters of tcTERT were obtained using established pre-steady-state kinetics protocols for DNA polymerases, also known as single turnover kinetics[70],[71]. Briefly, we preincubated 2 μM tcTERT with 200 nM annealed DNA:RNA hybrid substrate, with a 6-FAM label on the 5′ end of the DNA component. We then used a KinTek RQF-3 (a rapid quench-flow instrument) to mix equal ratios of the incoming nucleotide triphosphate and 10 mM MgCl2 with the existing mix of tcTERT and its DNA:RNA hybrid substrate. Reactions were run at 37 °C and quenched at various timepoints with 100 mM EDTA pH 7.5. […] After each reaction, the samples were transferred to a DNA gel loading buffer, containing 100 mM EDTA, 80% deionized formamide, 0.25 mg ml^−1 bromophenol blue, and 0.25 mg ml^−1 xylene cyanol. These mixes were then incubated at 95 °C for 5 min, and loaded onto a 21% denaturing polyacrylamide gel. These gels were run at 700 V, […], and 30 W at 30 °C in order to separate the reaction product from its substrate.
Means and standard deviations from at least three independent replicates were calculated, and graphed using KaleidaGraph version 4.5.2. Plots of product formation over time were fit to the exponential equation (1) to determine kobs values:1 P=A(1−e^−kobst).
In which [P] is the concentration of the product, A is the target engagement (amplitude), and t is the reaction time. After kobs values were determined for multiple nucleotide triphosphate concentrations, the data was replot to compare kobs to concentration of nucleotide triphosphate, and fit to Eq. (2):2 kobs=kpol[NTP]/Kd+[NTP]. with kpol representing the theoretical maximum value of kobs, and [NTP] representing the concentration of the nucleotide of interest.

polymerase β = polymerase β (Homo sapiens, UniProt P06746); experiment: Polymerase β dGTP run-on assay; type: biochemical; conditions: 50 or 200 μM dGTP
Experimental: These mixes were then incubated at 95 °C for 5 min, and loaded onto a 21% denaturing polyacrylamide gel. These gels were run at 700 V, […], and 30 W at 30 °C in order to separate the reaction product from its substrate.
Supplementary Fig 4. Time course reactions with telomerase or pol β. (a, b) Telomerase reactions were conducted with 5 nM 32P-end labeled primer (a) Primer 4 (GTTAGG)3 or (b) Primer 2 (GGTTAG)3.
Products were separated on denaturing gels. Letters on the right indicate the template base; P indicates unextended 18-mer primer. Graphs represent the percent primer extended for the reactions in panels a and b from one experiment. ( c, d) Primer extension by human polymerase b. The double stranded 6- […]
reactions were run on denaturing gels and imaged using a Typhoon phosphoimager. P indicates unextended 13-mer primer from three independent experiments. Source data are provided as a Source […]

tcTERT [2] = target: T1, tcTERT; conditions: cited from earlier work
[3] = dNTP binding to tcTERT-primer-template complex

In the case of Nc1nc2c(ncn2C2CC(O)C(COP(=O)(O)OP(=O)(O)OP(=O)(O)O)O2)c(=S)[nH]1 (stereo not shown) [6-thio-dGTP], the tcTERT kobs (tcTERT [1]; [6-thio-dGTP] 0.5 uM, Mean) is reported as 0.024, the tcTERT kobs (tcTERT [1]; [6-thio-dGTP] 0.5 uM, single replicates) is reported as 0.020 and 0.017 and 0.037 and the tcTERT kobs (tcTERT [1]; [6-thio-dGTP] 1 uM, Mean) is reported as 0.036. For the same compound, the tcTERT kobs (tcTERT [1]; [6-thio-dGTP] 1 uM, single replicates) was 0.046 and 0.026 and 0.035, the tcTERT kobs (tcTERT [1]; [6-thio-dGTP] 3 uM, Mean) was 0.084 and the tcTERT kobs (tcTERT [1]; [6-thio-dGTP] 3 uM, single replicates) was 0.093 and 0.083 and 0.076. The tcTERT kobs (tcTERT [1]; [6-thio-dGTP] 5 uM, Mean) was 0.142, the tcTERT kobs (tcTERT [1]; [6-thio-dGTP] 5 uM, single replicates) was 0.256 and 0.136 and 0.070 and 0.105 and the tcTERT kobs (tcTERT [1]; [6-thio-dGTP] 7 uM, Mean) was 0.143. For the same compound, the tcTERT kobs (tcTERT [1]; [6-thio-dGTP] 7 uM, single replicates) was 0.232 and 0.073 and 0.125, the tcTERT kobs (tcTERT [1]; [6-thio-dGTP] 10 uM, Mean) was 0.239 and the tcTERT kobs (tcTERT [1]; [6-thio-dGTP] 10 uM, single replicates) was 0.389 and 0.333 and 0.126 and 0.109. For the same compound, the tcTERT kobs (tcTERT [1]; [6-thio-dGTP] 15 uM, Mean) was 0.330, the tcTERT kobs (tcTERT [1]; [6-thio-dGTP] 15 uM, single replicates) was 0.523 and 0.151 and 0.314 and the tcTERT kobs (tcTERT [1]; [6-thio-dGTP] 20 uM, Mean) was 0.552. For the same compound, the tcTERT kobs (tcTERT [1]; [6-thio-dGTP] 20 uM, single replicates) was 0.535 and 0.464 and 0.603 and 0.606, the tcTERT kobs (tcTERT [1]; [6-thio-dGTP] 25 uM, Mean) was 0.632 and the tcTERT kobs (tcTERT [1]; [6-thio-dGTP] 25 uM, single replicates) was 0.411 and 0.737 and 0.749. For the same compound, the tcTERT kobs (tcTERT [1]; [6-thio-dGTP] 40 uM, Mean) was 0.951, the tcTERT kobs (tcTERT [1]; [6-thio-dGTP] 40 uM, single replicates) was 0.795 and 1.041 and 1.018 and the tcTERT kobs (tcTERT [1]; [6-thio-dGTP] 50 uM, Mean) was 1.139. For the same compound, the tcTERT kobs (tcTERT [1]; [6-thio-dGTP] 50 uM, single replicates) was 1.051 and 1.270 and 1.096, the tcTERT kobs (tcTERT [1]; [6-thio-dGTP] 75 uM, Mean) was 1.424 and the tcTERT kobs (tcTERT [1]; [6-thio-dGTP] 75 uM, single replicates) was 1.281 and 1.438 and 1.554. The tcTERT kobs (tcTERT [1]; [6-thio-dGTP] 100 uM, Mean) was 1.760, the tcTERT kobs (tcTERT [1]; [6-thio-dGTP] 100 uM, single replicates) was 1.806 and 1.680 and 1.793 and the tcTERT kobs (tcTERT [1]; [6-thio-dGTP] 150 uM, Mean) was 1.896. The tcTERT kobs (tcTERT [1]; [6-thio-dGTP] 150 uM, single replicates) was 1.870 and 2.039 and 1.778, the Fold change (tcTERT [1]) was 0.579 and the Kd (tcTERT [1]; [3]) was 92.4 ± 12.9 µM. The kpol (tcTERT [1]; single nucleotide insertion, 37 °C) was 3.1 ± 0.23 s⁻¹.
In the case of Nc1nc2c(ncn2C2CC(O)C(COP(=O)(O)OP(=O)(O)OP(=O)(O)O)O2)c(=O)[nH]1 (stereo not shown) [dGTP], the “Fold higher catalytic efficiency of dGTP compared to 6-thio-dGTP” value (tcTERT [1]) is reported as 2 fold, the Fold change (tcTERT [1]) is reported as 1.000 and the “Laddering or misincorporation by DNA polymerase β (in words)” value (polymerase β) is reported as “no evidence of dGTP laddering or misincorporation opposite template A”. The Kd (tcTERT [2]; [3]) was 18.1 ± 3.78 µM, the “Catalytic efficiency (kpol/Kd)” value (tcTERT [2]; single nucleotide insertion) was 58000 ± 12000 M⁻¹ s⁻¹ and the kpol (tcTERT [2]; single nucleotide insertion) was 1.1 ± 0.03 s⁻¹.
